From PMC4865820, “Branched Peptide, B2088, Disrupts the Supramolecular Organization of Lipopolysaccharides and Sensitizes the Gram-negative Bacteria” (Scientific Reports, 2016) come the findings set out here.

Each structure is given as a SMILES string. Positions of bridges follow the written chain, without caps; N, C: chain ends. Residues, ends and D or L forms follow the SMILES beside them. Chains are numbered I, II in the order given.

Assay [1] has as its system P. aeruginosa ATCC 9027 and P. aeruginosa DM4877/07 strains. Kind of assay: Time-kill kinetics. It counts as cell-based. The following applies: ¼ × MIC of B2088 alone, 0–24 h, MHB, 37 °C. The text has this: It is likely that disruption of the supramolecular organization of LPS could enhance the intracellular accessibility of the antibiotics thus rendering the micro-organisms susceptible at sub-lethal concentration of the drugs. To confirm this, we performed time-kill kinetics at sub-lethal concentration of B2088, antibiotics and their combinations against two different P. aeruginosa strains. […] The effect was quite remarkable for the B2088-gatifloxacin combination as >5 log10 reduction in CFU/ml was apparent in less than 2 h against two different P. aeruginosa strains.
Figure 6 Antimicrobial efficacy of B2088-antibiotics combinations. Time-kill kinetics showing synergism between B2088 and other antibiotics. (a) B2088 and gatifloxacin against P. aeruginosa ATCC 9027 strains. (b) B2088 and gatifloxacin against P. aeruginosa DM4877/07 strains. (c) B2088 and tobramycin against P. aeruginosa DM4877/07 strains. (d) B2088 and chloramphenicol against P. aeruginosa DM4877/07 strains. Note that for simplicity B2088 and the antibiotics are represented by single letter codes (B – B2088, G – gatifloxacin, T – tobramycin, C – chloramphenicol).
The kinetics of bactericidal action of is assessed by using each drug alone or in combinations at their sub-inhibitory MICs. […]

In the next assay the test system is FITC-labelled LPS. The experiment in a line: FITC-LPS fluorescence interaction assay. It counts as binding. Conditions: 5 μg/ml FITC-LPS, ex 485/em 515 nm, 25 °C. The text has this:
To confirm the findings from ITC experiments, we examined the ultrastructure of LPS or the LPS/B2088 complex by electron microscopy. TEM analysis of the LPS indicated a ribbon-like structure (Fig. 3a), consistent with previous studies. For the LPS-B2088 complex, the peptide:LPS ratios were chosen to epitomize the initial (high peptide:LPS) or final (low peptide:LPS) injections of the ITC curves shown in Fig. 2a–c. At low peptide:LPS ratio (~0.04), more electron-dense surface appeared presumably due to binding of the peptide to LPS may cause partial/complete neutralization of the negative charges and the ribbon-like structure of LPS remained intact (Fig. 3b). […]
The interaction between FITC-LPS was determined by monitoring the change in fluorescence emission intensity (λex = 485 nm and λem = 515 nm) using a Quanta Master spectrophotometer (Photon Technology International, NJ, USA) with a constant slit width of 0.5 nm at 25 °C. Briefly, the emission intensity of 5 μg/ml of FITC-LPS was monitored continuously in a 1 ml cuvette until it remained constant. 10 μl a concentrated stock solution of B2088 was added and the changes in fluorescence intensity were recorded as before.

On to `CC(C)[C@H](NC(=O)[C@H](CCCCN)NC(=O)[C@H](CCCNC(=N)N)NC(=O)CNC(=O)[C@@H](N)CCCNC(=N)N)C(=O)N[C@H](C(=O)N[C@@H](CCCNC(=N)N)C(=O)N[C@@H](CCCNC(=N)N)C(=O)NCCCC[C@H](NC(=O)[C@H](CCCNC(=N)N)NC(=O)[C@H](CCCNC(=N)N)NC(=O)[C@@H](NC(=O)[C@@H](NC(=O)[C@H](CCCCN)NC(=O)[C@H](CCCNC(=N)N)NC(=O)CNC(=O)[C@@H](N)CCCNC(=N)N)C(C)C)C(C)C)C(=O)N[C@@H](CCCCN)C(=O)O)C(C)C` [B2088] (I: H-RGRKVVRRKK-OH / II: H-RGRKVVRR; amide I:9-II:C; N-terminus and C-terminus assumed), for which, in assay [1], the Time-kill outcome is listed as “no bacteriostatic or bactericidal activity”. Further, the “Peptide concentration above which dequenching of FITC-LPS fluorescence occurred” value in the assay with FITC-labelled LPS was “above 25 μg/ml”.
